Test results taken from ChEMBL document CHEMBL4251592, “Recent advances in microtubule-stabilizing agents” (Eur J Med Chem, 2018).
Values after ≈ are worked out from the molar mass of the structure shown.

How the values were obtained:
[1] = test system: HL-60; test: Growth inhibition of human HL60 cells incubated for 48 hrs by SRB assay; format: functional; details: HL-60, 48 h
[2] = test system: K562; test: Growth inhibition of human K562 cells incubated for 48 hrs by SRB assay; format: functional; details: K562, 48 h
[3] = test system: HCC 2998; test: Growth inhibition of human HCC2998 cells incubated for 48 hrs by SRB assay; format: functional; details: HCC 2998, 48 h
[4] = test system: SF-539; test: Growth inhibition of human SF539 cells incubated for 48 hrs by SRB assay; format: functional; details: SF-539, 48 h
[5] = test system: SKM-1; test: Cytotoxicity against human SKM1 cells incubated for 48 hrs by SRB assay; format: functional, cell-based; details: SKM-1, 48 h
[6] = test system: U-937; test: Cytotoxicity against human U937 cells incubated for 48 hrs by SRB assay; format: functional, cell-based; details: U-937, 48 h

Structure (SMILES)	GI50 [1]	GI50 [2]	GI50 [3]	GI50 [4]	IC50 [5]	IC50 [6]
C=C1C[C@@H]2C/C=C/C(=O)C/C(C)=C\C=C\C(=O)O[C@H](C=O)C/C(C)=C/[C@H](C1)O2	0.025 to 0.099 µg/mL (≈ 0.065 to 0.257 µM)	0.025 to 0.099 µg/mL (≈ 0.065 to 0.257 µM)	0.025 to 0.099 µg/mL (≈ 0.065 to 0.257 µM)	0.025 to 0.099 µg/mL (≈ 0.065 to 0.257 µM)		
C=C1C[C@@H]2C/C=C/C(=O)C/C(C)=C\C=C\C(=O)O[C@H]([C@H](O)NC(=O)/C=C\C=C\C)C/C(C)=C/[C@H](C1)O2 [ZAMPANOLIDE]					1.1 to 2.9 nM	1.1 to 2.9 nM
